# Test results taken from paper PMC11748363, “Antimicrobial and Antiproliferative Properties of 2‐Phenyl‐N‐(Pyridin‐2‐yl)acetamides” (Chemical Biology & Drug Design, 2025).
# Like-named read-outs stand apart in the source and are kept apart here.
# Experiments:
# [1] = tested on: Mycolicibacterium aurum DSM 43999; assay: Antimycobacterial microdilution broth MIC (resazurin), M. aurum; assay type: cell-based
# [2] = tested on: Aspergillus flavus CCM 8363; assay: Antifungal microdilution broth MIC, AFla
# [3] = tested on: Candida krusei CCM 8271, ATCC 6258; assay: Antifungal microdilution broth MIC, CK; details: Pichia kudriavzevii; for IC90: ATCC6258|CCM8271, 24 h
# [4] = tested on: Enterococcus faecalis CCM 4224, ATCC 29212; assay: Antibacterial microdilution broth MIC, EF; assay type: cell-based
# [5] = tested on: Staphylococcus aureus subsp. aureus CCM 4750, ATCC 43300 (MRSA); assay: Antibacterial microdilution broth MIC, MRSA; assay type: cell-based; details: Staphylococcus aureus
# [6] = tested on: Candida tropicalis CCM 8264, ATCC 750; assay: Antifungal microdilution broth MIC, CT; details: for IC90: ATCC750|CCM8264, 24 h
# [7] = tested on: Klebsiella pneumoniae CCM 4415, ATCC 10031; assay: Antibacterial microdilution broth MIC, KP
# [8] = tested on: Mycobacterium tuberculosis H37Ra; assay: Antimycobacterial microdilution broth MIC (resazurin), Mtb H37Ra; assay type: cell-based; details: for MIC: Mycobacterium tuberculosis, H37RA
# [9] = tested on: Acinetobacter baumannii DSM 30007, ATCC 19606; assay: Antibacterial microdilution broth MIC, ACI; assay type: cell-based
# [10] = tested on: Trichophyton interdigitale CCM 8377, ATCC 9533; assay: Antifungal microdilution broth MIC, TI; details: Trichophyton interdigitale
# [11] = tested on: Lichtheimia corymbifera CCM 8077; assay: Antifungal microdilution broth MIC, LC
# [12] = tested on: Staphylococcus aureus CCM 4223, ATCC 29213; assay: Antibacterial microdilution broth MIC, SA; assay type: cell-based; details: Staphylococcus aureus
# [13] = tested on: Mycolicibacterium smegmatis DSM 43465; assay: Antimycobacterial microdilution broth MIC (resazurin), M. smegmatis; assay type: cell-based
# [14] = tested on: Candida parapsilosis CCM 8260, ATCC 22019; assay: Antifungal microdilution broth MIC, CP; details: Lodderomyces parapsilosis
# [15] = tested on: Pseudomonas aeruginosa CCM 3955, ATCC 27853; assay: Antibacterial microdilution broth MIC, PA; assay type: cell-based
# [16] = tested on: Escherichia coli CCM 3954, ATCC 25922; assay: Antibacterial microdilution broth MIC, EC; assay type: cell-based
# [17] = tested on: Candida albicans CCM 8320, ATCC 24433; assay: Antifungal microdilution broth MIC, CA; details: for IC90: ATCC24433|CCM8320, 24 h
# HepG2 cell line = assay: Cytotoxicity CellTiter 96, HepG2; assay type: cell-based, human; details: Homo sapiens, HepG2, 24 h, 24 h incubation; ^c compound precipitated in the testing medium; ^d over the limit of tested concentrations
# [18] = tested on: Aspergillus fumigatus ATCC 204305; assay: Antifungal microdilution broth MIC, AF
# [19] = tested on: Staphylococcus epidermidis CCM 4418, ATCC 12228; assay: Antibacterial microdilution broth MIC, SE; assay type: cell-based
# [20] = read-out: MIC Mtb H37Ra (μg/mL)
# [21] = CCM8363, 48 h, read-out: MIC visual detection, AFla
# [22] = 24 h, read-out: MIC visual detection, CK
# [23] = 24 h, read-out: MIC visual detection, CT
# [24] = ATCC9533|CCM8377, 48 h, read-out: MIC visual detection, TI
# [25] = CCM8077, 48 h, read-out: MIC visual detection, LC
# [26] = ATCC22019|CCM8260, 24 h, read-out: MIC visual detection, CP
# [27] = 24 h, read-out: MIC visual detection, CA
# [28] = ATCC204305, 48 h, read-out: MIC visual detection, AF
structure (smiles),measurement,setting,value
O=C(Cc1ccc(F)cc1)Nc1cccc(Cl)n1 [Compound 33],MIC,"[1]; DSM43999, read-out: MIC M. aurum",250 µg/mL
same,MIC,"[2]; CCM8363, 24 h, read-out: MIC AFla 24h",> 500 µM
same,MIC,"[2]; CCM8363, 48 h, read-out: MIC AFla 48h",> 500 µM
same,MIC,"[3]; 24 h, read-out: MIC CK 24h",31.2 µM
same,MIC,"[3]; 48 h, read-out: MIC CK 48h",62.5 µM
same,MIC,"[4]; 24 h, read-out: MIC EF 24h",> 500 µM
same,MIC,"[4]; 48 h, read-out: MIC EF 48h",> 500 µM
same,MIC,"[5]; 24 h, read-out: MIC MRSA 24h",> 500 µM
same,MIC,"[5]; 48 h, read-out: MIC MRSA 48h",> 500 µM
same,MIC,"[6]; 24 h, read-out: MIC CT 24h",> 500 µM
same,MIC,"[6]; 48 h, read-out: MIC CT 48h",> 500 µM
same,MIC KP 24h,[7]; 24h,> 500 µM
same,MIC KP 48h,[7]; 48h,> 500 µM
same,MIC,"[8]; Calculated from MIC (μg/mL), read-out: MIC Mtb H37Ra",59 µM
same,MIC,[8]; read-out: MIC Mtb H37Ra,15.6 µg/mL
same,SI (selectivity index),"[8]; SI = HepG2 IC50 (μM)/MIC MtbH37Ra (μM), calculated for compounds with MIC ≤ 31.25 μg/mL",3.6
same,MIC,"[9]; 24 h, read-out: MIC ACI 24h",> 500 µM
same,MIC,"[9]; 48 h, read-out: MIC ACI 48h",> 500 µM
same,MIC,"[10]; 72 h, read-out: MIC TI 72h",> 500 µM
same,MIC,"[10]; 120 h, read-out: MIC TI 120h",> 500 µM
same,MIC,"[11]; CCM8077, 24 h, read-out: MIC LC 24h",> 500 µM
same,MIC,"[11]; CCM8077, 48 h, read-out: MIC LC 48h",> 500 µM
same,MIC,"[12]; 24 h, read-out: MIC SA 24h",> 500 µM
same,MIC,"[12]; 48 h, read-out: MIC SA 48h",> 500 µM
same,MIC,"[13]; DSM43465, read-out: MIC M. smegmatis",500 µg/mL
same,MIC,"[14]; 24 h, read-out: MIC CP 24h",> 500 µM
same,MIC,"[14]; 48 h, read-out: MIC CP 48h",> 500 µM
same,MIC,"[15]; 24 h, read-out: MIC PA 24h",> 500 µM
same,MIC,"[15]; 48 h, read-out: MIC PA 48h",> 500 µM
same,MIC,"[16]; 24 h, read-out: MIC EC 24h",> 500 µM
same,MIC,"[16]; 48 h, read-out: MIC EC 48h",> 500 µM
same,MIC,"[17]; 24 h, read-out: MIC CA 24h",> 500 µM
same,MIC,"[17]; 48 h, read-out: MIC CA 48h",> 500 µM
same,IC50,HepG2 cell line,213 µM
same,MIC,"[18]; ATCC204305, 24 h, read-out: MIC AF 24h",> 500 µM
same,MIC,"[18]; ATCC204305, 48 h, read-out: MIC AF 48h",> 500 µM
same,MIC,"[19]; 24 h, read-out: MIC SE 24h",> 500 µM
same,MIC,"[19]; 48 h, read-out: MIC SE 48h",> 500 µM
"O=C(O)c1cn(C2CC2)c2cc(N3CCNCC3)c(F)cc2c1=O [CIP, ciprofloxacin, reference compound]",MIC,[8]; read-out: MIC Mtb H37Ra (μM),0.38 to 0.75 µM
same,MIC,[8]; [20],0.125 to 0.25 µg/mL
"C[C@@H]1[C@H](O)[C@@H](C)/C=C/C=C/C=C/C=C/C=C/C=C/C=C/[C@H](O[C@@H]2O[C@H](C)[C@@H](O)[C@H](N)[C@@H]2O)C[C@@H]2O[C@](O)(C[C@@H](O)C[C@@H](O)[C@H](O)CC[C@@H](O)C[C@@H](O)CC(=O)O[C@H]1C)C[C@H](O)[C@H]2C(=O)O [Amphotericin B, amphotericin B, reference compound]",IC90,"[2]; CCM8363, 48 h, read-out: Amphotericin B - IC90 spectrophotometric detection, AFla",4 µg/mL
same,MIC,[2]; [21],4 µg/mL
same,MIC,[3]; [22],1 µg/mL
same,IC90,"[3]; read-out: Amphotericin B - IC90 spectrophotometric detection, CK",1 µg/mL
same,MIC,[6]; [23],1 µg/mL
same,IC90,"[6]; read-out: Amphotericin B - IC90 spectrophotometric detection, CT",1 µg/mL
same,IC90,"[10]; ATCC9533|CCM8377, 48 h, read-out: Amphotericin B - IC90 spectrophotometric detection, TI",1 µg/mL
same,MIC,[10]; [24],1 µg/mL
same,IC90,"[11]; CCM8077, 48 h, read-out: Amphotericin B - IC90 spectrophotometric detection, LC",1 µg/mL
same,MIC,[11]; [25],1 µg/mL
same,IC90,"[14]; ATCC22019|CCM8260, 24 h, read-out: Amphotericin B - IC90 spectrophotometric detection, CP",0.5 µg/mL
same,MIC,[14]; [26],0.5 µg/mL
same,MIC,[17]; [27],1 µg/mL
same,IC90,"[17]; read-out: Amphotericin B - IC90 spectrophotometric detection, CA",1 µg/mL
same,IC90,"[18]; ATCC204305, 48 h, read-out: Amphotericin B - IC90 spectrophotometric detection, AF",4 µg/mL
same,MIC,[18]; [28],4 µg/mL
"C[C@@H](c1ncncc1F)[C@](O)(Cn1cncn1)c1ccc(F)cc1F [Voriconazole, voriconazole, reference compound]",MIC,[2]; [21],> 16 µg/mL
same,IC90,"[2]; CCM8363, 48 h, read-out: Voriconazole - IC90 spectrophotometric detection, AFla",2 µg/mL
same,MIC,[3]; [22],> 16 µg/mL
same,IC90,"[3]; read-out: Voriconazole - IC90 spectrophotometric detection, CK",0.25 µg/mL
same,MIC,[6]; [23],> 16 µg/mL
same,IC90,"[6]; read-out: Voriconazole - IC90 spectrophotometric detection, CT",2 µg/mL
same,MIC,[10]; [24],> 16 µg/mL
same,IC90,"[10]; ATCC9533|CCM8377, 48 h, read-out: Voriconazole - IC90 spectrophotometric detection, TI",1 µg/mL
same,MIC,[11]; [25],> 16 µg/mL
same,IC90,"[11]; CCM8077, 48 h, read-out: Voriconazole - IC90 spectrophotometric detection, LC",> 16 µg/mL
same,MIC,[14]; [26],> 16 µg/mL
same,IC90,"[14]; ATCC22019|CCM8260, 24 h, read-out: Voriconazole - IC90 spectrophotometric detection, CP",0.03 µg/mL
same,MIC,[17]; [27],> 16 µg/mL
same,IC90,"[17]; read-out: Voriconazole - IC90 spectrophotometric detection, CA",0.03 µg/mL
same,MIC,[18]; [28],1 µg/mL
same,IC90,"[18]; ATCC204305, 48 h, read-out: Voriconazole - IC90 spectrophotometric detection, AF",0.25 µg/mL
"CO[C@H]1/C=C/O[C@@]2(C)Oc3c(C)c(O)c4c(O)c(c(/C=N/N5CCN(C)CC5)c(O)c4c3C2=O)NC(=O)/C(C)=C\C=C\[C@H](C)[C@H](O)[C@@H](C)[C@@H](O)[C@@H](C)[C@H](OC(C)=O)[C@@H]1C [RIF, rifampicin, reference compound]",MIC,"[1]; DSM43999, read-out: MIC M. aurum (μg/mL)",0.39 to 0.78 µg/mL
same,MIC,[8]; read-out: MIC Mtb H37Ra (μM),0.0037 µM
same,MIC,[8]; [20],0.00313 µg/mL
same,MIC,"[13]; DSM43465, read-out: MIC M. smegmatis (μg/mL)",1.56 to 6.25 µg/mL
"CNC(C)C1CCC(N)C(OC2C(N)CC(N)C(OC3OCC(C)(O)C(NC)C3O)C2O)O1 (stereo not drawn) [Gentamicin, gentamicin, reference compound]",MIC,"[4]; internal quality controls, 24h, 95% inhibition of growth, 530 nm, read-out: MIC (µg/mL) EF, spectrophotometric detection",> 8 µg/mL
same,MIC,"[4]; read-out: MIC (µg/mL) EF, Gentamicin – spectrophotometric detection, internal quality controls, 24h",> 8 µg/mL
same,MIC,"[5]; read-out: MIC (µg/mL) MRSA, Gentamicin – spectrophotometric detection, internal quality controls, 24h",> 8 µg/mL
same,MIC,"[5]; internal quality controls, 24h, 95% inhibition of growth, 530 nm, read-out: MIC (µg/mL) MRSA, spectrophotometric detection",> 8 µg/mL
same,MIC,"[9]; internal quality controls, 24h, 95% inhibition of growth, 530 nm, read-out: MIC (µg/mL) ACI, spectrophotometric detection",8 µg/mL
same,MIC,"[9]; read-out: MIC (µg/mL) ACI, Gentamicin – spectrophotometric detection, internal quality controls, 24h",8 µg/mL
same,MIC,"[12]; read-out: MIC (µg/mL) SA, Gentamicin – spectrophotometric detection, internal quality controls, 24h",0.5 µg/mL
same,MIC,"[12]; internal quality controls, 24h, 95% inhibition of growth, 530 nm, read-out: MIC (µg/mL) SA, spectrophotometric detection",1 µg/mL
same,MIC,"[15]; internal quality controls, 24h, 95% inhibition of growth, 530 nm, read-out: MIC (µg/mL) PA, spectrophotometric detection",0.5 µg/mL
same,MIC,"[15]; read-out: MIC (µg/mL) PA, Gentamicin – spectrophotometric detection, internal quality controls, 24h",0.5 µg/mL
same,MIC,"[16]; internal quality controls, 24h, 95% inhibition of growth, 530 nm, read-out: MIC (µg/mL) EC, spectrophotometric detection",1 µg/mL
same,MIC,"[16]; read-out: MIC (µg/mL) EC, Gentamicin – spectrophotometric detection, internal quality controls, 24h",1 µg/mL
same,MIC,"[19]; internal quality controls, 24h, 95% inhibition of growth, 530 nm, read-out: MIC (µg/mL) SE, spectrophotometric detection",0.0625 µg/mL
same,MIC,"[19]; read-out: MIC (µg/mL) SE, Gentamicin – spectrophotometric detection, internal quality controls, 24h",0.0625 µg/mL
